Laboratory results reported in US20260125371A1, “METHOD FOR INHIBITING CLOSTRIDIOIDES DIFFICILE SPORE GERMINATION” (UNIVERSITY OF NOTRE DAME DU LAC, priority 2022, published 2026).
Values after ≈ are worked out from the molar mass of the structure shown. Where two headings read alike, the source gives them in different places.

Experiments:
S. oralis ATCC 9811 = settings: cited from earlier work
Gram-negative bacteria = settings: organisms of Table 2; data from earlier publication; cited from earlier work
B. cereus ATCC 13061 = settings: cited from earlier work
P. aeruginosa ATCC27853 = settings: cited from earlier work
[1] = tested on: B. licheniformis ATCC 12759; settings: cited from earlier work
Veillonella sp. HM-49 = settings: cited from earlier work
[2] = tested on: S. haemolyticus ATCC 29970; settings: cited from earlier work
K. pneumoniae ATCC700603 [3] = settings: cited from earlier work
MRSA = settings: cited from earlier work
S. aureus = settings: cited from earlier work
E. coli ATCC25922 = settings: cited from earlier work
E. faecium [4] = settings: cited from earlier work
[5] = tested on: S. epidermidis ATCC 35547; settings: cited from earlier work
E. aerogenes ATCC35029 = settings: cited from earlier work
[6] = tested on: Corynebacterium spp. HM-784; settings: cited from earlier work
C. difficile ATCC 43255 [7] = assay: Determination of minimal-inhibitory concentrations (microdilution), C. difficile ATCC 43255; assay type: cell-based, Clostridioides difficile; settings: Clostridioides difficile
S. pyogenes ATCC 49399 [8] = settings: cited from earlier work
A. baumanii ATCC17961 = settings: cited from earlier work
E. faecalis [9] = settings: cited from earlier work
E. faecalis [10] = assay: MIC against E. faecalis strains; assay type: cell-based; settings: Enterococcus faecalis
E. faecium [11] = assay: MIC against E. faecium strains; assay type: cell-based
K. pneumoniae ATCC700603 [12] = assay: MIC against K. pneumoniae; assay type: cell-based; settings: Klebsiella pneumoniae; K. pneumoniae ATCC700603; read-out: MIC
[13] = tested on: Lactobacillus gasseri HM-644; assay: MIC against Lactobacillus gasseri (gut bacteria); assay type: cell-based; settings: HM644
[14] = tested on: Corynebacterium spp. HM-784; assay: MIC against Corynebacterium spp. (gut bacteria); assay type: cell-based; settings: SPP.HM784
HepG2 cells = assay: XTT cytotoxicity assay; assay type: cell-based; settings: Homo sapiens, HepG2, read-out: XTT IC50
[15] = tested on: Lactobacillus reuteri HM-102; assay: MIC against Lactobacillus reuteri (gut bacteria); assay type: cell-based; settings: Limosilactobacillus reuteri, HM102
[16] = tested on: C. difficile ATCC 43255 vegetative cells; assay: Mode of action by scanning electron microscopy (SEM); settings: 8× MIC for 24 h
S. pyogenes ATCC 49399 [17] = assay: MIC against S. pyogenes; assay type: cell-based; settings: Streptococcus pyogenes, ATCC49399
C. difficile ATCC 43255 [18] = assay: Time-kill assay; assay type: cell-based, Clostridioides difficile
[19] = tested on: Bacteroides fragilis HM-709; assay: MIC against Bacteroides fragilis (gut bacteria); assay type: cell-based; settings: HM709
[20] = tested on: Clostridioides difficile infection; settings: CDI patients; cited from earlier work
[21] = ATCC43255, 24 h, C. difficile ATCC 43255, 24 h, read-out: MIC (μg/mL) 24 h
[22] = ATCC43255, Table 1, strain ATCC 43255, read-out: MIC C. difficile
[23] = Enterococcus faecium, read-out: MIC

Row | Compound | MIC (S. oralis ATCC 9811) [µg/mL] | activity against Gram-negative organisms (Gram-negative bacteria) | MIC (B. cereus ATCC 13061) [µg/mL] | MIC (P. aeruginosa ATCC27853) [µg/mL] | MIC [1] [µg/mL] | MIC (Veillonella sp. HM-49) [µg/mL] | MIC [2] [µg/mL] | MIC (K. pneumoniae ATCC700603 [3]) [µg/mL] | MIC (S. aureus; S. aureus ATCC 27660) [µg/mL] | MIC (S. aureus; S. aureus ATCC 29213) [µg/mL] | MIC (S. aureus; S. aureus NRS100 (COL)) [µg/mL] | MIC (S. aureus; S. aureus NRS119) [µg/mL] | MIC (S. aureus; S. aureus NRS120) [µg/mL] | MIC (S. aureus; S. aureus VRS1) [µg/mL] | MIC [6] [µg/mL] | MIC (C. difficile ATCC 43255 [7]; [21]) [µg/mL] | MIC (C. difficile ATCC 43255 [7]; [22]) [µg/mL] | MIC (E. faecium [11]; E. faecium 106 (Van R)) [µg/mL] | MIC (E. faecium [11]; [23]) [µg/mL] | MIC (K. pneumoniae ATCC700603 [12]) [µg/mL] | other results
1 | FC(F)(F)c1ccc(Oc2ccc(-c3noc(-c4ccc5[nH]ccc5c4)n3)cc2)cc1 [Compound 1] | 128 (≈ 304 µM) | no activity | 16 (≈ 38 µM) | >128 | 8 (≈ 19 µM) | >128 | 8 (≈ 19 µM) | >128 | 4 (≈ 9.49 µM) | 4 (≈ 9.49 µM) | 2 (≈ 4.75 µM) | 2 (≈ 4.75 µM) | 2 (≈ 4.75 µM) | 2 (≈ 4.75 µM) | 2 (≈ 4.75 µM) | 2 (≈ 4.75 µM) | 4 (≈ 9.49 µM) |  |  |  | efficacy in mouse models of MRSA infection (MRSA): efficacious; MIC against MRSA (S. aureus; MRSA): 2 µg/mL (≈ 4.75 µM); MIC (S. aureus; S. aureus VRS2): 2 µg/mL (≈ 4.75 µM); MIC (E. coli ATCC25922): >128 µg/mL; MIC (E. faecium [4]; E. faecium 106 (Van R)): 2 µg/mL (≈ 4.75 µM); MIC (E. faecium [4]; E. faecium 119-39A (Van S)): 1 µg/mL (≈ 2.37 µM); MIC (E. faecium [4]; E. faecium NCTC 7171): 2 µg/mL (≈ 4.75 µM); MIC [5]: 2 µg/mL (≈ 4.75 µM); MIC (E. aerogenes ATCC35029): >128 µg/mL; MIC (S. pyogenes ATCC 49399 [8]): 64 µg/mL (≈ 152 µM); MIC (A. baumanii ATCC17961): >128 µg/mL; MIC (E. faecalis [9]; E. faecalis 99 (Van R)): 4 µg/mL (≈ 9.49 µM); MIC (E. faecalis [9]; E. faecalis 201 (Van S)): 4 µg/mL (≈ 9.49 µM); MIC (E. faecalis [9]; E. faecalis ATCC 29212): 8 µg/mL (≈ 19 µM)
2 | Oc1ccc(-c2nc(-c3ccc(OC4CCCC4)cc3)no2)cc1 [Compound 2] | >128 | no activity | 2 (≈ 6.2 µM) | >128 | 4 (≈ 12.4 µM) | >128 | 2 (≈ 6.2 µM) | >128 | 2 to 4 | 2 (≈ 6.2 µM) | 1 (≈ 3.1 µM) | 1 to 2 | 2 (≈ 6.2 µM) | 2 (≈ 6.2 µM) | 0.5 (≈ 1.55 µM) | 2 (≈ 6.2 µM) | 2 (≈ 6.2 µM) |  |  |  | MIC (S. aureus; S. aureus VRS2): 2 µg/mL (≈ 6.2 µM); MIC (E. coli ATCC25922): >128 µg/mL; MIC (E. faecium [4]; E. faecium 106 (Van R)): 2 µg/mL (≈ 6.2 µM); MIC (E. faecium [4]; E. faecium 119-39A (Van S)): 2 µg/mL (≈ 6.2 µM); MIC (E. faecium [4]; E. faecium NCTC 7171): 4 µg/mL (≈ 12.4 µM); MIC [5]: 2 µg/mL (≈ 6.2 µM); MIC (E. aerogenes ATCC35029): >128 µg/mL; MIC (S. pyogenes ATCC 49399 [8]): >128 µg/mL; MIC (A. baumanii ATCC17961): >128 µg/mL; MIC (E. faecalis [9]; E. faecalis 99 (Van R)): 4 µg/mL (≈ 12.4 µM); MIC (E. faecalis [9]; E. faecalis 201 (Van S)): 4 µg/mL (≈ 12.4 µM); MIC (E. faecalis [9]; E. faecalis ATCC 29212): 4 µg/mL (≈ 12.4 µM)
3 | O=[N+]([O-])c1cnc(-c2nc(-c3ccc(OC4CCCC4)cc3)no2)[nH]1 [Compound 57, 3-(4-(Cyclopentyloxy)phenyl)-5-(4-nitro-1H-imidazol-2-yl)-1,2,4-oxadiazole] |  |  |  |  |  |  |  |  |  |  |  |  |  |  |  | 0.125 (≈ 0.366 µM) | 0.25 (≈ 0.732 µM) | 128 (≈ 375 µM) | 128 (≈ 375 µM) | > 128 | MIC (E. faecalis [10]; E. faecalis 99 (Van R), read-out: MIC): 128 µg/mL (≈ 375 µM); MIC [13]: > 128 µg/mL; MIC [14]: > 128 µg/mL; IC50 (HepG2 cells): 53.4 ± 4.5 µg/mL (≈ 156 µM); MIC [15]: > 128 µg/mL; effect on vegetative cells by SEM [16]: damage to the cell wall; MIC (S. pyogenes ATCC 49399 [17]): > 128 µg/mL; reduction in bacterial growth (time-kill) (C. difficile ATCC 43255 [18]; 4× MIC, 12 h): ≥ 3 log10; reduction in bacterial growth (time-kill) (C. difficile ATCC 43255 [18]; 8× MIC): 4 log 10; reduction in bacterial growth (time-kill) (C. difficile ATCC 43255 [18]; all concentrations: 1×, 2×, 4×, 8× MIC): Four-log10 reduction; MIC [19]: 128 µg/mL (≈ 375 µM); MIC (C. difficile ATCC 43255 [7]; ATCC43255, C. difficile ATCC43255, read-out: ATCC43255 MIC): 0.25 µg/mL (≈ 0.732 µM); MIC (C. difficile ATCC 43255 [7]; ATCC43255, C. difficile ATCC43255, read-out: MIC): 0.25 µg/mL (≈ 0.732 µM); MIC (C. difficile ATCC 43255 [7]; ATCC43255, strain ATCC43255, read-out: MIC): 0.25 µg/mL (≈ 0.732 µM)
4 | CCc1c(Cl)c(O)c(Cl)c(O)c1C(=O)O[C@H]1[C@H](O)[C@H](OC)[C@H](OC/C2=C\C=C\C[C@H](O)/C(C)=C/[C@H](CC)[C@@H](O[C@@H]3OC(C)(C)[C@@H](OC(=O)C(C)C)[C@H](O)[C@@H]3O)/C(C)=C/C(C)=C/C[C@@H]([C@@H](C)O)OC2=O)O[C@@H]1C [FDX, fidaxomicin] |  |  |  |  |  | 8 (≈ 7.56 µM) |  |  |  |  |  |  |  |  | <0.06 |  |  | >16 | > 16 | > 128 | recurrence of infection [20]: 15%
5 | Cc1ncc([N+](=O)[O-])n1CCO [MTZ, metronidazole] |  |  |  |  |  |  |  |  |  |  |  |  |  |  | >32 |  |  | >16 | > 16 | > 128 | MIC (E. faecalis [10]): > 256 µg/mL; MIC (E. faecalis [10]; ATCC29212): > 256 µg/mL; MIC (E. faecium [11]; Enterococcus faecium, NCTC7171, E. faecium NCTC 7171, read-out: MIC): > 128 µg/mL; effect on vegetative cells by SEM [16]: No obvious effect; recurrence of infection [20]: 27%; MIC (S. pyogenes ATCC 49399 [17]): > 128 µg/mL; reduction in bacterial growth (time-kill) (C. difficile ATCC 43255 [18]; 8× MIC): 4 log 10
